Common to all, as to assay type: cell-based
The subject of assay [1] is HepG2 cells. The experiment in a line: Glucose uptake (Glucose Uptake-Glo). The settings on record: Homo sapiens, read-out: % increase in Glucose Uptake.
The subject of assay [2] is Methylmalonic Acidemia (MMA) primary fibroblasts Tsi 5224. The assay is described as follows: Mitochondrial respiration, XFe96 Extracellular Flux Analyzer (OCR/ECAR), MMA fibroblasts Tsi 5224.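 Note: relative to vehicle DMSO control.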 The settings on record: Homo sapiens, Fibroblast, MMA Tsi 5224, assay condition A (10 mM glucose, 2 mM L-glutamine, 1 mM pyruvate, 10% FBS), read-out: Increase in Maximal Respiratory Capacity AUC. As for the experimental part: The effect of the compounds of the present disclosure on mitochondrial respiration was measured with a XFe96 Extracellular Flux Analyzer (Seahorse Bioscience, Agilent Technologies) and Oxygen consumption Rate (OCR) and Extracellular acidification rate (ECAR) determined.
Cell culture and treatments. Primary adherent fibroblasts were cultured in minimum essential medium (MEM) (Gibco, 25030081) supplemented with 2 mM L-Glutamine (Gibco, 25030081), 15% fetal bovine serum (FBS) (Gibco, 26400044) and 1% penicillin/streptomycin (Gibco, 5140122) at 37° C. and 5% CO2. Cells were collected for either passaging or experiment at ˜70-80% confluence. Cells were obtained by trypsinization and seeded at 20000 cells/well in cell culture microplates (Seahorse Bioscience, 101085-004) and allowed to adhere for 16 hours in culture media.
By profiling different primary cells and/or optimizing their culture media or environmental components one can select cell lines and/or conditions that are appropriate for the biological or disease model. In the present example, 24 hours prior to OCR and ECAR profiling, media was changed to Dulbecco's Modified Eagle Medium (DMEM, Agilent Seahorse 103575-100) with the appropriate supplements for the different primary cells (10 mM glucose, 2 mM L-glutamine, 1 mM pyruvate, 10% FBS; 1 mM glucose, 2 mM L-glutamine, 1 mM pyruvate, 10% FBS; 10 mM glucose, 10% FBS; 5 mM glucose 10% FBS; 1 mM glucose 10% FBS). Cells used in this example were: Propionic Acidemia (PA) (GM00371, GM03590 Coriell Institute for Medical Research, Tsi 6337, Tsi 4626, Tsi 3618 Trans-Hit Bio), Methylmalonic Acidemia (MMA) (GM01673, Coriell Institute for Medical Research, Tsi 5224 Trans-Hit Bio), Branched chain ketoacid dehydrogenase kinase (BCKDK) (GM00612, GM00649 Coriell Institute for Medical Research), Subnormal activation of pyruvate dehydrogenase complex (PDH) (GM01503 Coriell Institute for Medical Research), Very long-chain acyl-CoA dehydrogenase (VLCAD) (GM17475), Leigh Syndrome (LS) (GM03672, GM13411 Coriell Institute for Medical Research), Pyruvate Carboxylase Deficiency (PC) (GM00444 Coriell Institute for Medical Research), Glutaric Acidemia-I (GA) (GM10653), Friedreich's Ataxia (FXN) (GM04078 Coriell Institute for Medical Research, Huntington's disease (HD) (GM21756 Coriell Institute for Medical Research), Ornithine Transcarbamylase Deficiency (OTC) (GM12756 Coriell Institute for Medical Research), Kearns-Sayre Syndrome (KSS) (GM06225 Coriell Institute for Medical Research).
One hour before the assay, the cells were washed with freshly prepared unbuffered serum free-Seahorse XF Assay medium (Seahorse Bioscience, North America, USA, 103575-100) with the same supplements as for the previous 24 hour incubation.
After baseline measurements of OCR, cells were challenged with compounds of the present disclosure at different concentrations (10 to 50 μM) or vehicle (DMSO, 0.1%) and a post-compound baseline was recorded. OCR was measured after sequentially adding to each well 1 μg/ml oligomycin (inhibitor of ATP synthase Sigma-Aldrich, 753531), then maximal OCR was determined with carbonyl cyanide 4-(trifluoromethoxy) phenylhydrazone (FCCP, Sigma-Aldrich, C2920), (uncoupler of oxidative phosphorylation) and 0.5 μM of rotenone (Sigma-Aldrich, R8875) plus antimycin A (Sigma-Aldrich, A8674) (inhibitors of mitochondrial complex I and III) for determination of rotenone-antimycin insensitive respiration together with Hoechst for nuclear staining in situ when normalized to cell counts. After the analysis and nuclear staining, the XFp microplate was transferred to the Cytation 5, and the nuclear images were captured, the individual nuclei were identified and counted by BioTek Gen5 software. Data were expressed as pmol of O2 per minute and normalized by nuclear staining and baselined to pre-compound addition.
Assay conditions were as stated below.
Assay specifics on assay conditions are indicated below when readouts were normalized to cell counts. […]

The test system of assay [3] is HepG2 cells. The experiment in a line: Mitochondrial membrane potential (MITO-ID MP detection Kit). The settings on record: Homo sapiens, 168 h, 50 uM, 7 days, read-out: % decrease in Mitochondrial Membrane Potential. As to the method:
HepG2 cells (ATCC, HB-8065) were cultured (5% CO2 at 37° C.) and plated in Poly-D-Lysine 384-Well plate (Corning, 356663) at a density of 160000 cells/mL in 50 μL/well. Culture and assay media consisted of DMEM (Gibco, 11995-065) supplemented with 1% Penicillin-Streptomycin and 10% FBS (Hyclone, SV30087.03).
MITO-ID® MP detection Kit (ENZ-51018) was used and manufacturer instructions followed. Cells were allowed to settle for 30 min at room temperature and further incubated overnight (37° C. and 5% CO2) for adherence. Next day, test compounds (50-10 μM) and vehicle DMSO (0.2%) were added at the recommended volumes to the 384-well plate for 7 days without media change using a Tecan compound dispenser. All the solutions and wash buffers were prepared and dispensed according to manufacturer's volumes for a 384-well plate format.

Assay [4] deals with Propionic Acidemia (PA) primary fibroblasts GM00371. The experiment in a line: Mitochondrial respiration, XFe96 Extracellular Flux Analyzer (OCR/ECAR), PA fibroblasts GM00371. The settings on record: Homo sapiens, Fibroblast.

Where two headings read alike, the source gives them in different places.

As to `CC(=O)SCCNC(=O)CCNC(=O)[C@H](O)C(C)(C)COC(=O)CNC(=O)OC(C)(C)C` [Compound 1275, (3R)-3-[(2-[[2-(acetylsulfanyl)ethyl]carbamoyl]ethyl)carbamoyl]-3-hydroxy-2,2-dimethylpropyl 2-[(tert-butoxycarbonyl)amino]acetate], the activation at 10 µM in assay [1] is no less than 20%.
Consider `COC(=O)CCC1(CC(=O)SCCNC(=O)CCNC(=O)[C@H](O)C(C)(C)COC(C)=O)OCC(C)(C)CO1` [Compound 1268, methyl 3-(2-[2-[(2-[3-[(2R)-4-(acetyloxy)-2-hydroxy-3,3-dimethylbu-tanamido]propanamido]ethyl)sulfanyl]-2-oxoethyl]-5,5-dimethyl-1,3-dioxan-2-yl)propanoate], for which the activation at 50 µM in assay [1] was no less than 30%.
In the case of `CC(C(=O)O)C(=O)SCCNC(=O)CCNC(=O)[C@H](O)C(C)(C)CO` (stereo partly shown) [Compound 393], the activation at 10 µM in assay [2] is no less than 10%; in assay [1], no less than 30%.
Take `CC(=O)O[C@@H](C(=O)NCCC(=O)NCCSC(=O)CCC(=O)O)C(C)(C)CO` [Compound 211, 4-[(2-[3-[(2R)-2-(acetyloxy)-4-hydroxy-3,3-dimethylbutanamido]propanamido]ethyl)sulfanyl]-4-oxobutanoic acid]: the activation at 50 µM in assay [1] was no less than 30%.
On to `CCC(=O)OCC(C)(C)[C@@H](O)C(=O)NCCC(=O)NCCSSCCNC(=O)CCNC(=O)[C@H](O)C(C)(C)COC(=O)CC` [Compound 1271, (3R)-3-hydroxy-3-[[2-([2-[(2-[3-[(2R)-2-hydroxy-3,3-dimethyl-4-(propanoyloxy)butanamido]propanamido]ethyl)disulfanyl]ethyl]carbamoyl)ethyl]carbamoyl]-2,2-dimethylpropyl propanoate], for which, in assay [1], the activation at 10 µM is no less than 10%.
The same measure, in the same setting: with `C[C@H](NC(=O)OC(C)(C)C)C(=O)OCC(C)(C)[C@@H](O)C(=O)NCCC(=O)NCCSSCCNC(=O)CCNC(=O)[C@H](O)C(C)(C)COC(=O)[C@H](C)NC(=O)OC(C)(C)C` [Compound 1277, (3R)-3-[[2-([2-[(2-[3-[(2R)-4-[[(2S)-2-[(tert-butoxycarbonyl)amino]propanoyl]oxy]-2-hydroxy-3,3-dimethylbutanamido]propanamido]ethyl)disulfanyl]ethyl]carbamoyl)ethyl]carbamoyl]-3-hydroxy-2,2-dimethylpropyl (2S)-2-[(tert-butoxycarbonyl)amino]propanoate] the figure was no less than 10%.
Consider `C[C@H](O)CC(=O)SCCNC(=O)CCNC(=O)[C@H](O)C(C)(C)CO` [Compound 1246, (2R)-2,4-dihydroxy-N-{2-[(2-{[(3S)-3-hydroxybutanoyl]sulfanyl}ethyl)carbamoyl]ethyl}-3,3-dimethylbutanamide], for which, in assay [3], the inhibition at 50 µM was greater than 50%.
For `CC(=O)OCC(C)(C)[C@@H](OC(C)=O)C(=O)NCCC(=O)NCCS` [Compound 1263, (1R)-3-(acetyloxy)-2,2-dimethyl-1-([2-[(2-sulfanylethyl)carbamoyl]ethyl]carbamoyl)propyl acetate], in assay [1], the activation at 50 µM is no less than 30%.
`CC(=O)SCCNC(=O)CCNC(=O)[C@H](O)C(C)(C)CO` [Compound 1241, (R)—S-(2-(3-(2,4-dihydroxy-3,3-dimethylbutanamido)propanamido)ethyl) ethanethioate]: in assay [1], the activation at 10 µM was no less than 30%.
For `CC(=O)NCC(=O)O[C@@H](C(=O)NCCC(=O)NCCSC(=O)CCC(=O)O)C(C)(C)CO` [Compound 1296, 4-[(2-[3-[(2R)-2-[(2-acetamidoacetyl)oxy]-4-hydroxy-3,3-dimethylbutanamido]propanamido]ethyl)sulfanyl]-4-oxobutanoic acid], the activation at 10 µM in assay [4] (assay condition D (1 mM glucose, 10% FBS), 10 μM, read-out: Increase in Spare Capacity AUC) is no less than 30%; in assay [1], no less than 10%.
For `COC(=O)CCC(=O)SCCNC(=O)CCNC(=O)[C@H](OC(C)=O)C(C)(C)COC(C)=O` [Compound 214, methyl 4-[(2-[3-[(2R)-2,4-bis(acetyloxy)-3,3-dimethylbutanamido]propanamido]ethyl)sulfanyl]-4-oxobutanoate], the activation at 50 µM is no less than 50% in assay [4] (assay condition A (10 mM glucose, 2 mM L-glutamine, 1 mM pyruvate, 10% FBS), read-out: Increase in Spare Capacity AUC) and no less than 10% in assay [4] (assay condition D (1 mM glucose, 10% FBS), read-out: Increase in Spare Capacity AUC). Also, in assay [1], the activation at 10 µM was no less than 20%.
As for `CC(=O)SCCNC(=O)CCNC(=O)[C@H](O)C(C)(C)COC(=O)OCC[N+](C)(C)C` [Compound 503, [2-([[(3R)-3-[(2-[[2-(acetylsulfanyl)ethyl]carbamoyl]ethyl)carbamoyl]-3-hydroxy-2,2-dimethylpropoxy]carbonyl]oxy)ethyl]trimethylazanium], the activation at 50 µM was no less than 10% in assay [4] (assay condition A (10 mM glucose, 2 mM L-glutamine, 1 mM pyruvate, 10% FBS), read-out: Increase in Maximal Respiratory Capacity AUC) and no less than 20% in assay [1].
For the molecule `CC(=O)OCC(C)(C)[C@@H](O)C(=O)NCCC(=O)NCCSC(=O)/C=C/C(=O)O` [Compound 144, (2E)-4-[(2-[3-[(2R)-4-(acetyloxy)-2-hydroxy-3,3-dimethylbutanamido]propanamido]ethyl)sulfanyl]-4-oxobut-2-enoic acid], in assay [1], the activation at 50 µM was no less than 30%.
Turning to `CC(=O)SCCNC(=O)CCNC(=O)[C@H](O)C(C)(C)COC(=O)O[C@H](CC(=O)[O-])C[N+](C)(C)C` [Compound 183, (12R,18R)-12-hydroxy-13,13-dimethyl-2,7,11,16-tetraoxo-18-((trimethylammonio)methyl)-15,17-dioxa-3-thia-6,10-diazaicosan-20-oate], the values for the activation at 10 µM in assay [2] and in assay [1] were no less than 10% and no less than 30%, respectively.
On to `CC(C)(C)OC(=O)NCC(=O)OCC(C)(C)[C@@H](O)C(=O)NCCC(=O)NCCS` [Compound 1274, (3R)-3-hydroxy-2,2-dimethyl-3-([2-[(2-sulfanylethyl)carbamoyl]ethyl]carbamoyl)propyl 2-[(tert-butoxycarbonyl)amino]acetate], for which the activation at 50 µM in assay [1] is no less than 30%.
As for `C[C@H](NC(=O)OC(C)(C)C)C(=O)OCC(C)(C)[C@@H](O)C(=O)NCCC(=O)NCCS` [Compound 1278, (3R)-3-hydroxy-2,2-dimethyl-3-([2-[(2-sulfanylethyl)carbamoyl]ethyl]carbamoyl)propyl (2S)-2-[(tert-butoxycarbonyl)amino]propanoate], in assay [1], the activation at 10 µM was no less than 30%.

Source of the values: patent US20230107216A1, “PANTETHEINE DERIVATIVES AND USES THEREOF” (Comet Therapeutics, Inc., priority 2018, published 2023).
